ChEMBL document CHEMBL5241086, “Research progress of indole compounds with potential antidiabetic activity” (Eur J Med Chem, 2021)
Values after ≈ are worked out from the molar mass of the structure shown. Blank lines part the entries; values can stand above or below the compound they belong to.

Legend:
[1] = target: Aldo-keto reductase family 1 member B1 (Homo sapiens) (UniProt P15121); test: Inhibition of Aldose reductase (unknown origin) using DL-Glyceraldehyde as substrate incubated for 5 mins in presence of NADPH by spectrophotometer analysis
Mus musculus = test: Antidiabetic activity in mouse assessed as reduction in blood glucose level at 100 mg/kg, po bid measured up to 21 days; type: functional; parameters: scale not given: the % may be the effect or the level left; details: time <= 21 day
Alpha glucosidase [2] = target: T1, Alpha glucosidase (Homo sapiens, UniProt O43451+P10253+P14410+Q2M2H8); test: Inhibition of alpha glucosidase (unknown origin) using p-nitrophenyl glucopyranoside as substrate by UV based microplate reader analysis; type: protein assay
Alpha glucosidase [3] = target: T1, Alpha glucosidase; test: Inhibition of alpha glucosidase (unknown origin) using p-nitrophenyl glucopyranoside as substrate by multimode plate reader analysis; type: protein assay
[4] = target: T2, Glucose-dependent insulinotropic receptor (Homo sapiens, UniProt Q8TDV5); test: Agonist activity at human GPR119 incubated for 2 hrs by luciferase reporter gene assay
T2 sequence (Q8TDV5 whole entry): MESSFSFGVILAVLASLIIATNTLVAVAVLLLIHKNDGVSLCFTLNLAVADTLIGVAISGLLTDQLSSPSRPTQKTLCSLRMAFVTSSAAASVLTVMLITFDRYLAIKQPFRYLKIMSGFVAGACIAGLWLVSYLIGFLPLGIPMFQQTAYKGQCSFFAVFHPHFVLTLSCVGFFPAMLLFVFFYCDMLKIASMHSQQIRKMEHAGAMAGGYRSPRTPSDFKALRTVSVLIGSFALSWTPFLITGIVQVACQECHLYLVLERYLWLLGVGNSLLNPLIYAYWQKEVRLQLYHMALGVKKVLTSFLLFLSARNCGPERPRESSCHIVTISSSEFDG

Alpha glucosidase [5] = target: T1, Alpha glucosidase; test: Inhibition of alpha glucosidase (unknown origin) using p-nitrophenyl glucopyranoside as substrate preincubated for 15 mins followed by substrate addition and measured after 30 mins by spectrophotometer analysis; type: protein assay
Homo sapiens = species: Homo sapiens; test: Inhibition of beta-glucosidase (unknown origin) assessed as residual activity at 100 uM […] incubated for 1 hr followed by substrate addition and measured after 5 mins by spectrophotometer analysis relative to control; details: time 65.0 hrs
Alpha glucosidase [6] = target: T1, Alpha glucosidase; test: Inhibition of alpha glucosidase (unknown origin) using p-nitrophenyl glucopyranoside as substrate by UV Vis- spectrophotometer analysis; type: protein assay

SMILES: O=C1Nc2ccccc2/C1=N/NC(=S)N/N=C/c1ccc(Cl)cc1
Activity (Mus musculus): 29.6%

SMILES: CCc1cnc(N2CCC(C(C)COC(=O)N3CCc4cc(S(C)(=O)=O)ccc43)CC2)nc1 (configuration not stated)
EC50 [4]: 0.0039 µM

SMILES: O=C1Nc2ccccc2C1(c1cn(Cc2ccccc2F)c2ccccc12)c1cn(Cc2ccccc2F)c2ccccc12
IC50 (Alpha glucosidase [5]): 5.98 µM

SMILES: Cc1ccnc(NC(=O)CSc2nnc(CCCc3c[nH]c4ccccc34)o2)c1
IC50 (Alpha glucosidase [2]): 9.37 µM

SMILES: O=C(N[C@@H](Cc1c[nH]c2ccccc12)C(=O)O)c1cccc(Cl)c1
Activity (Homo sapiens): 49%

SMILES: COC(=O)[C@H](Cc1c[nH]c2ccccc12)NC(=O)c1cccc([N+](=O)[O-])c1
Activity (Homo sapiens): 37%

SMILES: Brc1ccc(-c2csc(-n3nc(-c4ccccc4)cc3-c3c[nH]c4ccccc34)n2)cc1
IC50 (Alpha glucosidase [6]): 236.1 µg/mL (≈ 475 µM)

Now from value to compound:

inhibition [1]: 5.3%
SMILES: O=[N+]([O-])c1cc(-c2cc3ccccc3[nH]2)ccc1Cl

IC50 (Alpha glucosidase [2]): 9.46 µM
SMILES: Cc1cccc(NC(=O)CSc2nnc(CCCc3c[nH]c4ccccc34)o2)c1C

IC50 (Alpha glucosidase [3]): 11.5 µM
SMILES: Cc1[nH]c2ccccc2c1C1Nc2ccccc2CO1 (configuration not stated)

IC50 (Alpha glucosidase [3]): 11.5 µM
SMILES: Cc1ccc2c(c1)COC(c1c(C)[nH]c3ccccc13)N2 (configuration not stated)

IC50 (Alpha glucosidase [3]): 11.5 µM
SMILES: Clc1ccc2c(c1)NC(c1c[nH]c3ccccc13)OC2 (configuration not stated)

IC50 (Alpha glucosidase [3]): 11.5 µM
SMILES: c1ccc2c(c1)COC(c1c[nH]c3ccccc13)N2 (configuration not stated)

IC50 (Alpha glucosidase [3]): 11.5 µM
SMILES: Cc1ccc2c(c1)COC(c1c(-c3ccccc3)[nH]c3ccccc13)N2 (configuration not stated)

inhibition [1]: 11%
SMILES: Nc1ccc(-c2cc3ccccc3[nH]2)cc1

inhibition [1]: 7.6%
SMILES: O=Cc1c(-c2ccccc2)[nH]c2ccccc12

IC50 (Alpha glucosidase [3]): 11.5 µM
SMILES: Clc1ccc2c(c1)COC(c1c(-c3ccccc3)[nH]c3ccccc13)N2 (configuration not stated)
